Measurements from US7754765B2, “Copper chelators for treating ocular inflammation” (Radical Vision Therapeutics Inc, priority 2000, dated 2010).

What was measured:
retina [1] = assay: Retinal thickness (edema) after laser photocoagulation in rats; assay type: in vivo, Long-Evans rats; conditions: 0.5 mmol/kg/day intraperitoneally; for retinal thickness, greater than that in normal retina: saline control 50%; for retinal thickness (edema) compared with control (saline injected), in words: day 1 post photocoagulation
[2] = tested on: ED-1 immunoreactive (macrophage) cells in retina; assay: ED-1 (macrophage) immunostaining of retina after photocoagulation in rats; assay type: in vivo; conditions: vs saline injected; for number of ED-1 positive retina cells relative to controls (in words): 24 hours after laser treatment; for number of ED-1 positive cells, times less than control: Day 1 post photocoagulation, average of four 40× objective fields
retina [3] = assay: Retinal thickness (edema) after PDT (verteporfin) in rabbits; assay type: in vivo, Pigmented rabbits; conditions: for retinal thickness, greater than that in normal retina: 24 hours after PDT, 0.2 mmol/kg/day intramuscularly, saline control 140%; for retinal thickness (edema) compared with control (saline injected), in words: day 1 post PDT, TRIEN or TETREN (0.2 mM/day)

Compound	retinal thickness, greater than that in the control animals (saline injected) (retina [1]; 24 hours post photocoagulation) [%]	retinal thickness, greater than that in normal retina (retina [1]; 24 hours post photocoagulation) [%]	retinal thickness (edema) compared with control (saline injected), in words (retina [1])	retinal thickness (edema) compared with control (saline injected), in words (retina [1]; listed as DPA)	number of ED-1 positive retina cells relative to controls (in words) [2]	number of ED-1 positive cells, times less than control [2]	retinal thickness, greater than that in normal retina (retina [3]) [%]	retinal thickness (edema) compared with control (saline injected), in words (retina [3])
CC(C)(S)[C@@H](N)C(=O)O [D-PA, D-penicillamine]	35	85	greater than that in control eyes	showed the opposite effect	–	–	–	–
NCCNCCNCCNCCN [TETREN, tetraethylenepentamine]	–	26	retinal thickness of eyes from control animals (saline injected) is greater	–	more than half that of control animals	2.5 times	45	significantly less than that in control
NCCNCCNCCN [TRIEN, triethylenetetramine]	–	23	retinal thickness of eyes from control animals (saline injected) is greater	–	approximately half that of the controls	two times less	50	significantly less than that in control
